The record followed here is patent US10806785B2, “Immunomodulator compounds and methods of use” (Incyte Corporation, priority 2016, dated 2020).

Sequence of PD-1/PD-L1 (Q9NZQ7 19-238): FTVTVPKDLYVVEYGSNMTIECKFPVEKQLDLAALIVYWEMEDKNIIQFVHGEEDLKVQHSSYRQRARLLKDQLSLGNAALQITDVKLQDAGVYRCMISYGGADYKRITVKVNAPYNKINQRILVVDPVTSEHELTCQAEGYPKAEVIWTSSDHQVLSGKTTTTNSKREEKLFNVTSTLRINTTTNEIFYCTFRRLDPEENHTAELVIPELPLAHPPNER

The target in the experiment is PD-1/PD-L1 (Homo sapiens (Human), UniProt Q9NZQ7). Nature of the experiment: PD-1/PD-L1 binding assay (HTRF). Put shortly:
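Fc-tagged human PD-1 (25-167) and His-tagged PD-L1 (19-238), listed as […] and 10 nM final, preincubated 40 min with inhibitors in PBS pH 7.4, 0.05% Tween-20, 0.1% BSA, 1% DMSO, 25 °C. Eu anti-IgG/APC anti-His added, 60 min, 665/620 nm HTRF ratio; IC50 fitted from percent control activity.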
One may read the IC50 as the concentration that gives 50% inhibition. The low end stands for greater potency, the high end for weaker potency. The compound `Cc1c(NC(=O)c2nc3c(n2C)CCN(CC24CCC(C(=O)O)(CC2)CC4)C3)cccc1-c1cccc(NC(=O)c2nc3c(n2C)CCN(C)C3)c1Cl` [Example 103, 4-((2-(2′-chloro-3′-(1,5-dimethyl-4,5,6,7-tetrahydro-1H-imidazo[4,5-c]pyridine-2-carboxamido)-2-methylbiphenyl-3-ylcarbamoyl)-1-methyl-6,7-dihydro-1H-imidazo[4,5-c]pyridin-5(4H)-yl)methyl)bicyclo[2.2.2]octane-1-carboxylic acid] returned an IC50 of at most 10 nM.

For the compound `CCC1(C(=O)O)CCC(N2CCc3c(nc(C(=O)Nc4cccc(-c5cccc(NC(=O)c6nc7c(n6C)CCN(C)C7)c5Cl)c4C)n3C)C2)CC1` (centres unmarked) [Example 104, 4-(2-((2′-chloro-3′-(1,5-dimethyl-4,5,6,7-tetrahydro-1H-imidazo[4,5-c]pyridine-2-carboxamido)-2-methyl-[1,1′-biphenyl]-3-yl)carbamoyl)-1-methyl-1,4,6,7-tetrahydro-5H-imidazo[4,5-c]pyridin-5-yl)-1-ethylcyclohexane-1-carboxylic acid], the half-maximal inhibitory concentration (IC50) was at most 10 nM.

For `CCN1CCc2c(nc(C(=O)Nc3cccc(-c4cccc(NC(=O)c5nc6c(n5C)CCN(C5CCC(C)(C(=O)O)CC5)C6)c4C)c3Cl)n2C)C1` (centres unmarked) [Example 105, 4-(2-((2′-chloro-3′-(5-ethyl-1-methyl-4,5,6,7-tetrahydro-1H-imidazo[4,5-c]pyridine-2-carboxamido)-2-methyl-[1,1′-biphenyl]-3-yl)carbamoyl)-1-methyl-1,4,6,7-tetrahydro-5H-imidazo[4,5-c]pyridin-5-yl)-1-methylcyclohexane-1-carboxylic acid], the half-maximal inhibitory concentration (IC50) is at most 10 nM.

In the case of `Cc1c(NC(=O)c2nc3c(n2C)CCN(C2CCC(C)(C(=O)O)CC2)C3)cccc1-c1cccc(NC(=O)c2nc3c(n2C)CCN(C(C)C)C3)c1Cl` (centres unmarked) [Example 106, 4-(2-((2′-chloro-3′-(5-isopropyl-1-methyl-4,5,6,7-tetrahydro-1H-imidazo[4,5-c]pyridine-2-carboxamido)-2-methyl-[1,1′-biphenyl]-3-yl)carbamoyl)-1-methyl-1,4,6,7-tetrahydro-5H-imidazo[4,5-c]pyridin-5-yl)-1-methylcyclohexane-1-carboxylic acid], the IC50 is at most 10 nM.

As for `Cc1c(NC(=O)c2nc3c(n2C)CCN(C2CCC(C)(C(=O)O)CC2)C3)cccc1-c1cccc(NC(=O)c2nc3c(n2C)CCN(C2CCCCC2)C3)c1Cl` (centres unmarked) [Example 107, 4-(2-((2′-chloro-3′-(5-cyclohcxyl-1-methyl-4,5,6,7-tetrahydro-1H-imidazo[4,5-c]pyridine-2-carboxamido)-2-methyl-[1,1′-biphenyl]-3-yl)carbamoyl)-1-methyl-1,4,6,7-tetrahydro-5H-imidazo[4,5-c]pyridin-5-yl)-1-methylcyclohexane-1-carboxylic acid], the IC50 is at most 10 nM.

The compound `Cc1c(NC(=O)c2nc3c(n2C)CCN(C2CCC(C)(C(=O)O)CC2)C3)cccc1-c1cccc(NC(=O)c2nc3c(n2C)CCN(C2CCOCC2)C3)c1Cl` (centres unmarked) [Example 108, 4-(2-((2′-chloro-2-methyl-3′-(1-methyl-5-(tetrahydro-2H-pyran-4-yl)-4,5,6,7-tetrahydro-1H-imidazo[4,5-c]pyridine-2-carboxamido)-[1,1′-biphenyl]-3-yl)carbamoyl)-1-methyl-1,4,6,7-tetrahydro-5H-imidazo[4,5-c]pyridin-5-yl)-1-methylcyclohexane-1-carboxylic acid] displayed an IC50 of at most 10 nM.

Consider `Cc1c(NC(=O)c2nc3c(n2C)CCN(CC[C@H]2CC[C@H](C(=O)O)CC2)C3)cccc1-c1cccc(NC(=O)c2nc3c(n2C)CCN(C2CCOCC2)C3)c1Cl` [Example 109, trans-4-(2-(2-((2′-chloro-2-methyl-3′-(1-methyl-5-(tetrahydro-2H-pyran-4-yl)-4,5,6,7-tetrahydro-1H-imidazo[4,5-c]pyridine-2-carboxamido)-[1,1′-biphenyl]-3-yl)carbamoyl)-1-methyl-1,4,6,7-tetrahydro-5H-imidazo[4,5-c]pyridin-5-yl)ethyl)cyclohexane-1-carboxylic acid], for which the IC50 was at most 10 nM.

In turn, `Cc1c(NC(=O)c2nc3c(n2C)CCN(C[C@H]2CC[C@H](C(=O)O)CC2)C3)cccc1-c1cccc(NC(=O)c2nc3c(n2C)CCN(C2CCOCC2)C3)c1Cl` [Example 110, trans-4-((2-((2′-chloro-2-methyl-3′-(1-methyl-5-(tetrahydro-2H-pyran-4-yl)-4,5,6,7-tetrahydro-1H-imidazo[4,5-c]pyridine-2-carboxamido)-[1,1′-biphenyl]-3-yl)carbamoyl)-1-methyl-1,4,6,7-tetrahydro-5H-imidazo[4,5-c]pyridin-5-yl)methyl)cyclohexane-1-carboxylic acid] gave an IC50 of at most 10 nM.

In the case of `Cc1c(NC(=O)c2nc3c(n2C)CCN(C2CCC(C(=O)O)CC2)C3)cccc1-c1cccc(NC(=O)c2nc3c(n2C)CCN(C2CCOCC2)C3)c1Cl` (centres unmarked) [Example 111, 4-(2-((2′-chloro-2-methyl-3′-(1-methyl-5-(tetrahydro-2H-pyran-4-yl)-4,5,6,7-tetrahydro-1H-imidazo[4,5-c]pyridine-2-carboxamido)-[1,1′-biphenyl]-3-yl)carbamoyl)-1-methyl-1,4,6,7-tetrahydro-5H-imidazo[4,5-c]pyridin-5-yl)cyclohexane-1-carboxylic acid], the IC50 is at most 10 nM.

For the compound `CCC1(C(=O)O)CCC(N2CCc3c(nc(C(=O)Nc4cccc(-c5cccc(NC(=O)c6nc7c(n6C)CCN(C6CCOCC6)C7)c5Cl)c4C)n3C)C2)CC1` (centres unmarked) [Example 112, 4-(2-((2′-chloro-2-methyl-3′-(1-methyl-5-(tetrahydro-2H-pyran-4-yl)-4,5,6,7-tetrahydro-1H-imidazo[4,5-c]pyridine-2-carboxamido)-[1,1′-biphenyl]-3-yl)carbamoyl)-1-methyl-1,4,6,7-tetrahydro-5H-imidazo[4,5-c]pyridin-5-yl)-1-ethylcyclohexane-1-carboxylic acid], the IC50 was at most 10 nM.

Consider `Cc1c(NC(=O)c2nc3c(n2C)CCN(C[C@H]2CC[C@@H](C(=O)O)CC2)C3)cccc1-c1cccc(NC(=O)c2nc3c(n2C)CCNC3)c1Cl` [Example 113, cis-4-((2-((2′-chloro-2-methyl-3′-(1-methyl-4,5,6,7-tetrahydro-1H-imidazo[4,5-c]pyridine-2-carboxamido)-[1,1′-biphenyl]-3-yl)carbamoyl)-1-methyl-1,4,6,7-tetrahydro-5H-imidazo[4,5-c]pyridin-5-yl)methyl)cyclohexane-1-carboxylic acid], for which the IC50 is at most 10 nM.

Take `Cc1c(NC(=O)c2nc3c(n2C)CCN(C)C3)cccc1-c1cccc(NC(=O)c2nc3c(n2C)CCN(CC[C@H]2CC[C@H](C(=O)O)CC2)C3)c1Cl` [Example 115, trans-4-(2-(2-((2-chloro-3′-(1,5-dimethyl-4,5,6,7-tetrahydro-1H-imidazo[4,5-c]pyridine-2-carboxamido)-2′-methyl-[1,1′-biphenyl]-3-yl)carbamoyl)-1-methyl-1,4,6,7-tetrahydro-5H-imidazo[4,5-c]pyridin-5-yl)ethyl)cyclohexane-1-carboxylic acid]: the IC50 was at most 10 nM.

Compound `Cc1c(NC(=O)c2nc3c(n2C)CCN(C)C3)cccc1-c1cccc(NC(=O)c2nc3c(n2C)CCN(C[C@H]2CC[C@H](C(=O)O)CC2)C3)c1Cl` [Example 116, trans-4-((2-((2-chloro-3′-(1,5-dimethyl-4,5,6,7-tetrahydro-1H-imidazo[4,5-c]pyridine-2-carboxamido)-2′-methyl-[1,1′-biphenyl]-3-yl)carbamoyl)-1-methyl-1,4,6,7-tetrahydro-5H-imidazo[4,5-c]pyridin-5-yl)methyl)cyclohexane-1-carboxylic acid] registered a concentration for half-maximal inhibition (IC50) of at most 10 nM.

`Cc1c(NC(=O)c2nc3c(n2C)CCN(C)C3)cccc1-c1cccc(NC(=O)c2nc3c(n2C)CCN(CCc2ccc(C(=O)O)cc2)C3)c1Cl` [Example 117, 4-(2-(2-((2-chloro-3′-(1,5-dimethyl-4,5,6,7-tetrahydro-1H-imidazo[4,5-c]pyridine-2-carboxamido)-2′-methyl-[1,1′-biphenyl]-3-yl)carbamoyl)-1-methyl-1,4,6,7-tetrahydro-5H-imidazo[4,5-c]pyridin-5-yl)ethyl)benzoic acid] showed an IC50 of at most 10 nM.

For the compound `Cc1c(NC(=O)c2nc3c(n2C)CCN(C)C3)cccc1-c1cccc(NC(=O)c2nc3c(n2C)CCN(C2CCC(C)(C(=O)O)CC2)C3)c1Cl` (centres unmarked) [Example 118, 4-(2-((2-chloro-3′-(1,5-dimethyl-4,5,6,7-tetrahydro-1H-imidazo[4,5-c]pyridine-2-carboxamido)-2′-methyl-[1,1′-biphenyl]-3-yl)carbamoyl)-1-methyl-1,4,6,7-tetrahydro-5H-imidazo[4,5-c]pyridin-5-yl)-1-methylcyclohexane-1-carboxylic acid], the concentration for half-maximal inhibition (IC50) is at most 10 nM.

Compound `Cc1c(NC(=O)c2nc3c(n2C)CCN(C)C3)cccc1-c1cccc(NC(=O)c2nc3c(n2C)CCN(CC24CCC(C(=O)O)(CC2)C4)C3)c1Cl` [Example 119, 4-((2-((2-chloro-3′-(1,5-dimethyl-4,5,6,7-tetrahydro-1H-imidazo[4,5-c]pyridine-2-carboxamido)-2′-methyl-[1,1′-biphenyl]-3-yl)carbamoyl)-1-methyl-1,4,6,7-tetrahydro-5H-imidazo[4,5-c]pyridin-5-yl)methyl)bicyclo[2.2.1]heptane-1-carboxylic acid] had an IC50 of at most 10 nM.

The compound `CCC1(C(=O)O)CCC(N2CCc3c(nc(C(=O)Nc4cccc(-c5cccc(NC(=O)c6nc7c(n6C)CCN(C)C7)c5C)c4Cl)n3C)C2)CC1` (centres unmarked) [Example 121, 4-(2-((2-chloro-3′-(1,5-dimethyl-4,5,6,7-tetrahydro-1H-imidazo[4,5-c]pyridine-2-carboxamido)-2′-methyl-[1,1′-biphenyl]-3-yl)carbamoyl)-1-methyl-1,4,6,7-tetrahydro-5H-imidazo[4,5-c]pyridin-5-yl)-1-ethylcyclohexane-1-carboxylic acid] registered an IC50 of at most 10 nM.
